The record followed here is PubChem BioAssay (NCI).

Holding throughout (experiment): inhibition of tumour cell growth, NCI panel, 48 h
The subject of experiment [1] is ACHN renal.
In experiment [2] the test system is HCC-2998 colon.
The test system of experiment [3] is HL-60(TB) leukemia.
Experiment [4] has as its system HOP-62 NSCLC.
Experiment [5] relates to MDA-MB-231 breast.
For experiment [6], the system named is OVCAR-3 ovarian.
The test system of experiment [7] is SK-MEL-5 melanoma.
Experiment [8] has as its system UO-31 renal.

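Method: 48-hour compound exposure of cells in 96-well plates, five concentrations, linear interpolation of endpoints. GI50 = concentration required for 50% inhibition of growth. TGI: total growth inhibition.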 Some results are limits rather than exact numbers.

Take `COc1nc(C)cc2c(=O)n(-c3ccccc3)n(CC(O)CN3CCN(c4ccc(Cl)cc4)CC3)c(=O)c12` (stereo unspecified): the GI50 in experiment [1] is 43.3 µM; in experiment [2] it was greater than 50 µM; in experiment [3], greater than 50 µM; in experiment [4], 37.9 µM; in experiment [5], greater than 50 µM; in experiment [6], 34.3 µM. Also, the GI50 in experiment [7] is 32.6 µM; in experiment [8], 46.6 µM. Moreover, the TGI in experiment [1], in experiment [2], in experiment [3], in experiment [4], in experiment [5] and in experiment [6] was greater than 50 µM each time. The TGI in experiment [7] and in experiment [8] was greater than 50 µM in each case.
With `Cc1cc(=O)oc2cc(OC(=O)N(CCCl)CCCl)ccc12`, the TGI in experiment [1], in experiment [2], in experiment [3], in experiment [4], in experiment [5] and in experiment [6] was greater than 100 µM in each case. The TGI in experiment [7] and in experiment [8] was greater than 100 µM throughout.
`Cn1cc(C2=C(c3cn(C)c4cc(N)ccc34)C(=O)NC2=O)c2ccccc21`: the GI50 in experiment [1] was 2.59 µM; in experiment [2], 1.5 µM; in experiment [3], 1.1 µM; in experiment [4], 3.86 µM; in experiment [5], 4.09 µM; in experiment [6], 0.721 µM. The GI50 in experiment [7] was 1.09 µM; in experiment [8], 2.54 µM. The TGI was 12.1 µM in experiment [1]; greater than 25 µM in experiment [2]; 5.52 µM in experiment [3]; greater than 25 µM in experiment [4]; 16.2 µM in experiment [5]; greater than 12.2 µM in experiment [6]. Moreover, the TGI in experiment [7] worked out at 5.76 µM; in experiment [8], 15.4 µM.
With `COC(=O)[C@]1(C)CCC[C@@]2(C)[C@@H]3C[C@@H]4[C@H]5C[C@@]3(CC[C@@H]21)C[C@@]45C`, the TGI was 29.2 µM in experiment [1]; 31 µM in experiment [2]; 17.8 µM in experiment [3]; 32.2 µM in experiment [4]; 29.9 µM in experiment [5]; 32.7 µM in experiment [6]. The TGI worked out at 34.3 µM in experiment [7] and 29.4 µM in experiment [8].
In the case of `CCCCCCNC(=O)Oc1ccc(/C(=C(/C)Cc2ccc(OC)cc2)c2ccc(OCCN(C)C)cc2)cc1`, the GI50 in experiment [1] was 5.43 µM; in experiment [2], 3.82 µM; in experiment [3], 4.82 µM; in experiment [4], 6.18 µM; in experiment [5], 5 µM; in experiment [6], 4.93 µM. Further, the GI50 in experiment [7] was 5.46 µM; in experiment [8] it was 3.87 µM. Also, the TGI in experiment [1] was found to be 9.99 µM; in experiment [2] it was 8.43 µM; in experiment [3], 10.3 µM; in experiment [4] it was 11 µM; in experiment [5], 9.65 µM; in experiment [6], 9.79 µM. The TGI was found to be 10.2 µM in experiment [7] and 8.03 µM in experiment [8].
`CCOC(=O)Nc1nc2cc(OCC)ccc2s1`: the GI50 is greater than 100 µM in experiment [1]; greater than 41.3 µM in experiment [2]; 4.85 µM in experiment [3]; 38.4 µM in experiment [4]; greater than 100 µM in experiment [5]; 35 µM in experiment [6]. Moreover, the GI50 in experiment [7] is 8.44 µM; in experiment [8], greater than 100 µM. In addition, the TGI in experiment [1], in experiment [2], in experiment [3], in experiment [4], in experiment [5] and in experiment [6] was greater than 100 µM each time. The TGI in experiment [7] and in experiment [8] was greater than 100 µM each time.
For `CC[C@@]12C=CCN3CC[C@]4(c5cc(NC(=O)COc6cc(OCC(=O)Nc7cc8c(cc7OC)N(C)[C@H]7[C@@](O)(C(=O)OC)[C@H](OC(C)=O)[C@]9(CC)C=CCN%10CC[C@]87[C@@H]%109)cc7oc(-c8ccccc8)cc(=O)c67)c(OC)cc5N(C)[C@@H]4[C@](O)(C(=O)OC)[C@H]1OC(C)=O)[C@H]32`, the GI50 in experiment [1] is greater than 100 µM; in experiment [2], 1.89 µM; in experiment [3], 20.4 µM; in experiment [4], 3.08 µM; in experiment [5], 2.68 µM; in experiment [6], 2.58 µM. For the same compound, the figures for the GI50 in experiment [7] and in experiment [8] were 36.9 µM and greater than 100 µM, respectively. The TGI in experiment [1] is greater than 100 µM; in experiment [2], 3.99 µM; in experiment [3], greater than 100 µM; in experiment [4] it was greater than 100 µM; in experiment [5], 9.08 µM; in experiment [6], 9.72 µM. Besides, the TGI in experiment [7] and in experiment [8] was greater than 100 µM throughout.
Take `CN1c2ccccc2S(=O)(=O)n2c(CCc3ccccc3)nnc21`: the TGI in experiment [1], in experiment [2], in experiment [3], in experiment [4], in experiment [5] and in experiment [6] was greater than 100 µM throughout. The TGI in experiment [7] and in experiment [8] was greater than 100 µM each time.
Take `COc1cc(/C=C2\CN(C(=O)CCN3CCC(=NO)CC3)C/C(=C\c3cc(OC)c(OC)c(OC)c3)C2=O)cc(OC)c1OC`: the GI50 was 0.837 µM in experiment [1]; 0.34 µM in experiment [2]; 0.298 µM in experiment [3]; 0.719 µM in experiment [4]; 0.323 µM in experiment [5]; 0.391 µM in experiment [6]. Also, the GI50 in experiment [7] is 0.302 µM; in experiment [8], 1.11 µM. Also, the TGI worked out at 2.51 µM in experiment [1]; 0.724 µM in experiment [2]; 1.05 µM in experiment [3]; 2.39 µM in experiment [4]; 1.11 µM in experiment [5]; 1.26 µM in experiment [6]. Besides, the TGI in experiment [7] was 0.927 µM; in experiment [8] it was 2.51 µM.
As to `Oc1c(CN2CCCC2)cc(CSCc2ccccc2)c2cccnc12`, the GI50 was 0.291 µM in experiment [1]; 1.39 µM in experiment [2]; 0.554 µM in experiment [3]; 0.513 µM in experiment [4]; 0.987 µM in experiment [5]; 0.44 µM in experiment [6]. Moreover, the GI50 in experiment [7] was 0.35 µM; in experiment [8], 0.103 µM. Also, the TGI in experiment [1] amounted to 10.2 µM; in experiment [2] it was 11.9 µM; in experiment [3] it was 2.77 µM; in experiment [4] it was 7.78 µM; in experiment [5] it was 12.2 µM; in experiment [6], 2.7 µM. Further, the TGI was determined as 1.6 µM in experiment [7] and 1.38 µM in experiment [8].
